Data on four molecules can be found in patent US20230085307A1, “PYRIDAZINONE COMPOUND AND HERBICIDE” (NISSAN CHEMICAL CORPORATION, priority 2019, published 2023).

Test [1] concerns oval-leafed pondweed. Kind of test: Test Example 1: herbicidal activity, application before weed generation under submerged conditions (Table 16, symbol C). It counts as in vivo, oval-leafed pondweed (Monochoria vaginalis). The conditions noted are these: amount of applied herbicide 320 g/ha. In outline:
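Emulsion formulation, water-diluted to set dose, was put onto the flooded surface (4 cm depth, alluvial soil) the same day weeds were sown and 2.5-leaf rice transplanted. After 3 weeks at 25-30 °C under glass, each species was rated 0 (≤5% kill) to 5 (≥90% kill).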

The subject of another test is late watergrass. Kind of test: Test Example 2: herbicidal activity, application during weed generation under submerged conditions (Table 17, symbol A). The test is classed as in vivo, late watergrass (Echinochloa oryzicola). The following applies: application during weed generation under submerged conditions; amount of applied herbicide 320 g/ha. The procedure, abridged:
(§1)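 Steps: fill Wagner pots with alluvial soil; add water to give 4 cm depth; sow the species mixed; grow under glass at 25–30° C.; at 1–2 leaves apply water-diluted emulsion formulation to the water surface at a fixed herbicide amount; score after 3 weeks.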

In a further test the test system is Japanese bulrush. Kind of test: Test Example 2: herbicidal activity, application during weed generation under submerged conditions (Table 17, symbol B). The test is classed as in vivo, Japanese bulrush (Schoenoplectus juncoides). The following applies: application during weed generation under submerged conditions; amount of applied herbicide 320 g/ha. The procedure, abridged: as §1

In test [2] the test system is oval-leafed pondweed. Kind of test: Test Example 2: herbicidal activity, application during weed generation under submerged conditions (Table 17, symbol C). The test is classed as in vivo, oval-leafed pondweed (Monochoria vaginalis). The conditions noted are these: application during weed generation under submerged conditions; amount of applied herbicide 320 g/ha. The procedure, abridged: as §1

In a further test the test system is Chinese sprangletop. Kind of test: Test Example 3: herbicidal effect by foliage application, Wagner pot (Table 18, symbol D). It counts as in vivo, chinese sprangletop (Leptochloa chinensis). The following applies: amount of applied herbicide 320 g/ha. In outline: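 Plants were sown in alluvial soil held under 0.1–0.5 cm standing water and grown 14 days in a greenhouse at 25–30 °C. An emulsifiable formulation, water-diluted to the set dose, was then sprayed onto the foliage, and effects were scored three weeks later using previously defined criteria.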

The next test deals with barnyard grass. Kind of test: Test Example 4: herbicidal effect by soil treatment (Table 19, symbol H). The test is classed as in vivo, barnyard grass (Echinochloa crus-galli). The following applies: amount of applied herbicide 320 g/ha. In outline: (§2)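 Applied as a water-diluted emulsion, the compound was sprayed onto soil covering newly sown seeds. Evaluation came three weeks after application, in a greenhouse held at 25° C. to 30° C.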

The next test relates to wild oat. Kind of test: Test Example 4: herbicidal effect by soil treatment (Table 19, symbol I). The test is classed as in vivo, wild oat (Avena fatua). The following applies: amount of applied herbicide 320 g/ha. The procedure, abridged:
as §2

A further test concerns redroot pigweed. Kind of test: Test Example 4: herbicidal effect by soil treatment (Table 19, symbol N). It counts as in vivo, redroot pigweed (Amaranthus retroflexus). The conditions noted are these: amount of applied herbicide 320 g/ha. The procedure, abridged:
as §2

The subject of test [3] is lambsquarters. Kind of test: Test Example 4: herbicidal effect by soil treatment (Table 19, symbol O). The test is classed as in vivo, lambsquarters (Chenopodium album). The following applies: amount of applied herbicide 320 g/ha. The procedure, abridged: as §2
For test [4], the system named is chickweed. Kind of test: Test Example 4: herbicidal effect by soil treatment (Table 19, symbol P). The test is classed as in vivo, common chickweed (Stellaria media). The conditions noted are these: amount of applied herbicide 320 g/ha. The procedure, abridged: as §2
A further test deals with false cleavers. Kind of test: Test Example 4: herbicidal effect by soil treatment (Table 19, symbol Q). The test is classed as in vivo, false cleavers (Galium spurium). The conditions noted are these: amount of applied herbicide 320 g/ha. In outline:
as §2

The next test relates to Italian ryegrass. Kind of test: Test Example 5: herbicidal effect by foliage application, plastic box (Table 20, symbol K). The test is classed as in vivo, Italian ryegrass (Lolium multiflorum). The following applies: foliage application, 320 g/ha, evaluated 3 weeks after application. The procedure, abridged: (§3)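 Sow seeds spot-wise in sterilized diluvial soil; cover with ~1.5 cm soil. Grow 14 days in greenhouse, 25° C. to 30° C. Spray foliage with emulsion diluted to predetermined amount. Rate effect after 3 weeks.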

Test [5] relates to lambsquarters. Kind of test: Test Example 5: herbicidal effect by foliage application, plastic box (Table 20, symbol O). The test is classed as in vivo, lambsquarters (Chenopodium album). The conditions noted are these: foliage application, 320 g/ha, evaluated 3 weeks after application. The procedure, abridged: as §3
Test [6] has as its system chickweed. Kind of test: Test Example 5: herbicidal effect by foliage application, plastic box (Table 20, symbol P). The following applies: foliage application, 320 g/ha, evaluated 3 weeks after application. It counts as in vivo, common chickweed (Stellaria media). The procedure, abridged:
as §3

The subject of a further test is persian speedwell. Kind of test: Test Example 5: herbicidal effect by foliage application, plastic box (Table 20, symbol R). The test is classed as in vivo, Persian speedwell (Veronica persica). The conditions noted are these: foliage application, 320 g/ha, evaluated 3 weeks after application. In outline:
as §3

A further test concerns blackgrass. Kind of test: Test Example 4: herbicidal effect by soil treatment (Table 19, symbol J). It counts as in vivo, blackgrass (Alopecurus myosuroides). The conditions noted are these: amount of applied herbicide 320 g/ha. In outline:
as §2

With `CSc1ccc(-c2oc3ccc(C)cc3c2-c2c(O)c(C)nn(C)c2=O)cc1` [9-055], in the test with oval-leafed pondweed [1], the “Herbicidal effect, C: oval-leafed pondweed” value (from here on “Herbicidal effect, C”) is 4 (Herbicidal rate of 70% or more and less than 90%). Further, in the test with late watergrass, the “herbicidal effect grade, A: late watergrass” value was 4 (Herbicidal rate of 70% or more and less than 90%). In addition, the “herbicidal effect grade, B: Japanese bulrush” value (from here on “herbicidal effect grade, B”) in the test on Japanese bulrush is 3 (Herbicidal rate of 40% or more and less than 70%). The “herbicidal effect grade, C: oval-leafed pondweed” value (“herbicidal effect grade, C” below) with oval-leafed pondweed [2] is 3 (Herbicidal rate of 40% or more and less than 70%). For the same molecule, the “Herbicidal effect on D (Chinese sprangletop), foliage application” value (shortened to “Herbicidal effect on D”) in the test on Chinese sprangletop is 5 (Herbicidal rate of 90% or more (almost completely withered)). Also, the “H: barnyard grass, herbicidal effect grade” value (from here on “H: barnyard grass”) with barnyard grass was 3 (Herbicidal rate of 40% or more and less than 70%). In addition, the “I: wild oat, herbicidal effect grade” value in the test on wild oat is recorded as 0 (Herbicidal rate of 5% or less (almost no effect)). The “N: redroot pigweed, herbicidal effect grade” value (from here on “N: redroot pigweed”) in the test on redroot pigweed is 5 (Herbicidal rate of 90% or more (almost completely withered)). The “O: lambsquarters, herbicidal effect grade” value (shortened to “O: lambsquarters”) with lambsquarters [3] was 4 (Herbicidal rate of 70% or more and less than 90%). In the test with chickweed [4], the “P: chickweed, herbicidal effect grade” value is 5 (Herbicidal rate of 90% or more (almost completely withered)). Besides, the “Q: false cleavers, herbicidal effect grade” value in the test with false cleavers is on record as 0 (Herbicidal rate of 5% or less (almost no effect)). Besides, in the test on Italian ryegrass, the “K (Italian ryegrass) herbicidal effect grade” value was 5 (Herbicidal rate of 90% or more (almost completely withered)). The “O (lambsquarters) herbicidal effect grade” value in the test with lambsquarters [5] is on record as 5 (Herbicidal rate of 90% or more (almost completely withered)). For the same molecule, the “P (chickweed) herbicidal effect grade” value in the test with chickweed [6] is 5 (Herbicidal rate of 90% or more (almost completely withered)). The “R (persian speedwell) herbicidal effect grade” value in the test with persian speedwell was 5 (Herbicidal rate of 90% or more (almost completely withered)).

As for `CCSc1ccc(-c2oc3ccc(C)cc3c2-c2c(O)c(C)nn(C)c2=O)cc1` [9-057], in the test on oval-leafed pondweed [1], the “Herbicidal effect, C” value was 4 (Herbicidal rate of 70% or more and less than 90%). For the same molecule, the “herbicidal effect grade, A: late watergrass” value with late watergrass is on record as 5 (Herbicidal rate of 90% or more (almost completely withered)). Further, in the test with Japanese bulrush, the “herbicidal effect grade, B” value is 3 (Herbicidal rate of 40% or more and less than 70%). The “herbicidal effect grade, C” value in the test on oval-leafed pondweed [2] is 4 (Herbicidal rate of 70% or more and less than 90%). In addition, the “Herbicidal effect on D” value with Chinese sprangletop is 3 (Herbicidal rate of 40% or more and less than 70%). In addition, the “H: barnyard grass” value with barnyard grass was 3 (Herbicidal rate of 40% or more and less than 70%). In the test with wild oat, the “I: wild oat, herbicidal effect grade” value is listed as 0 (Herbicidal rate of 5% or less (almost no effect)). In the test on blackgrass, the “J: blackgrass, herbicidal effect grade” value is 0 (Herbicidal rate of 5% or less (almost no effect)). Moreover, in the test on redroot pigweed, the “N: redroot pigweed” value is given as 5 (Herbicidal rate of 90% or more (almost completely withered)). Moreover, the “O: lambsquarters” value in the test on lambsquarters [3] is 5 (Herbicidal rate of 90% or more (almost completely withered)). Also, the “P: chickweed, herbicidal effect grade” value with chickweed [4] is 5 (Herbicidal rate of 90% or more (almost completely withered)). Besides, the “K (Italian ryegrass) herbicidal effect grade” value with Italian ryegrass is given as 5 (Herbicidal rate of 90% or more (almost completely withered)). In addition, the “O (lambsquarters) herbicidal effect grade” value with lambsquarters [5] is reported as 5 (Herbicidal rate of 90% or more (almost completely withered)). Besides, in the test on chickweed [6], the “P (chickweed) herbicidal effect grade” value is 5 (Herbicidal rate of 90% or more (almost completely withered)). Besides, in the test on persian speedwell, the “R (persian speedwell) herbicidal effect grade” value is recorded as 5 (Herbicidal rate of 90% or more (almost completely withered)).

`COCCOc1ccc(-c2oc3ccc(C)cc3c2-c2c(O)c(C)nn(C)c2=O)cc1` [9-063]: the “Herbicidal effect, C” value in the test with oval-leafed pondweed [1] is reported as 5 (Herbicidal rate of 90% or more (almost completely withered)). Besides, the “herbicidal effect grade, A: late watergrass” value with late watergrass is 5 (Herbicidal rate of 90% or more (almost completely withered)). For the same molecule, the “herbicidal effect grade, B” value with Japanese bulrush is 4 (Herbicidal rate of 70% or more and less than 90%). Besides, the “herbicidal effect grade, C” value in the test with oval-leafed pondweed [2] was 4 (Herbicidal rate of 70% or more and less than 90%). The “Herbicidal effect on D” value with Chinese sprangletop is 3 (Herbicidal rate of 40% or more and less than 70%). The “H: barnyard grass” value with barnyard grass is 5 (Herbicidal rate of 90% or more (almost completely withered)). The “I: wild oat, herbicidal effect grade” value in the test with wild oat is listed as 0 (Herbicidal rate of 5% or less (almost no effect)). For the same molecule, in the test on blackgrass, the “J: blackgrass, herbicidal effect grade” value was 5 (Herbicidal rate of 90% or more (almost completely withered)). Moreover, the “N: redroot pigweed” value with redroot pigweed is 5 (Herbicidal rate of 90% or more (almost completely withered)). Also, the “O: lambsquarters” value in the test with lambsquarters [3] is on record as 5 (Herbicidal rate of 90% or more (almost completely withered)). In the test on chickweed [4], the “P: chickweed, herbicidal effect grade” value is 4 (Herbicidal rate of 70% or more and less than 90%). In the test with Italian ryegrass, the “K (Italian ryegrass) herbicidal effect grade” value is 5 (Herbicidal rate of 90% or more (almost completely withered)). Further, the “O (lambsquarters) herbicidal effect grade” value with lambsquarters [5] was 5 (Herbicidal rate of 90% or more (almost completely withered)). In addition, the “P (chickweed) herbicidal effect grade” value with chickweed [6] was 5 (Herbicidal rate of 90% or more (almost completely withered)). Also, the “R (persian speedwell) herbicidal effect grade” value in the test on persian speedwell is 5 (Herbicidal rate of 90% or more (almost completely withered)).

Consider `Cc1nn(C)c(=O)c(-c2c(-c3ccc(Cl)cc3)sc3cccc(F)c23)c1O` [11-001], for which the “Herbicidal effect, C” value in the test with oval-leafed pondweed [1] is listed as 5 (Herbicidal rate of 90% or more (almost completely withered)). For the same molecule, in the test on late watergrass, the “herbicidal effect grade, A: late watergrass” value was 2 (Herbicidal rate of 20% or more and less than 40%). Also, the “herbicidal effect grade, B” value in the test with Japanese bulrush was 3 (Herbicidal rate of 40% or more and less than 70%). The “herbicidal effect grade, C” value in the test with oval-leafed pondweed [2] is 3 (Herbicidal rate of 40% or more and less than 70%). For the same molecule, the “Herbicidal effect on D” value with Chinese sprangletop is 3 (Herbicidal rate of 40% or more and less than 70%). For the same molecule, the “H: barnyard grass” value with barnyard grass was 0 (Herbicidal rate of 5% or less (almost no effect)). Also, the “I: wild oat, herbicidal effect grade” value with wild oat was 0 (Herbicidal rate of 5% or less (almost no effect)). The “N: redroot pigweed” value with redroot pigweed was 5 (Herbicidal rate of 90% or more (almost completely withered)). For the same molecule, in the test with lambsquarters [3], the “O: lambsquarters” value was 4 (Herbicidal rate of 70% or more and less than 90%). In addition, the “P: chickweed, herbicidal effect grade” value in the test with chickweed [4] is 4 (Herbicidal rate of 70% or more and less than 90%). Besides, the “Q: false cleavers, herbicidal effect grade” value with false cleavers is recorded as 0 (Herbicidal rate of 5% or less (almost no effect)). In addition, in the test with Italian ryegrass, the “K (Italian ryegrass) herbicidal effect grade” value was 3 (Herbicidal rate of 40% or more and less than 70%). In addition, the “O (lambsquarters) herbicidal effect grade” value in the test with lambsquarters [5] is 5 (Herbicidal rate of 90% or more (almost completely withered)). Further, in the test on chickweed [6], the “P (chickweed) herbicidal effect grade” value is reported as 5 (Herbicidal rate of 90% or more (almost completely withered)). The “R (persian speedwell) herbicidal effect grade” value in the test with persian speedwell is 5 (Herbicidal rate of 90% or more (almost completely withered)).
